This passage reports IC50 results from patent publication US10703756B2, “Pyrrolo[2,3-D]pyrimidinyl, pyrrolo[2,3-B]pyrazinyl, pyrrolo[2,3-B]pyridinyl acrylamides and epoxides thereof” (Pfizer Inc., priority 2015, dated 2020).

Experiment [1] has as its target T1, JAK3 enzyme (Homo sapiens, UniProt P52333).
T1 sequence (P52333 1-1124): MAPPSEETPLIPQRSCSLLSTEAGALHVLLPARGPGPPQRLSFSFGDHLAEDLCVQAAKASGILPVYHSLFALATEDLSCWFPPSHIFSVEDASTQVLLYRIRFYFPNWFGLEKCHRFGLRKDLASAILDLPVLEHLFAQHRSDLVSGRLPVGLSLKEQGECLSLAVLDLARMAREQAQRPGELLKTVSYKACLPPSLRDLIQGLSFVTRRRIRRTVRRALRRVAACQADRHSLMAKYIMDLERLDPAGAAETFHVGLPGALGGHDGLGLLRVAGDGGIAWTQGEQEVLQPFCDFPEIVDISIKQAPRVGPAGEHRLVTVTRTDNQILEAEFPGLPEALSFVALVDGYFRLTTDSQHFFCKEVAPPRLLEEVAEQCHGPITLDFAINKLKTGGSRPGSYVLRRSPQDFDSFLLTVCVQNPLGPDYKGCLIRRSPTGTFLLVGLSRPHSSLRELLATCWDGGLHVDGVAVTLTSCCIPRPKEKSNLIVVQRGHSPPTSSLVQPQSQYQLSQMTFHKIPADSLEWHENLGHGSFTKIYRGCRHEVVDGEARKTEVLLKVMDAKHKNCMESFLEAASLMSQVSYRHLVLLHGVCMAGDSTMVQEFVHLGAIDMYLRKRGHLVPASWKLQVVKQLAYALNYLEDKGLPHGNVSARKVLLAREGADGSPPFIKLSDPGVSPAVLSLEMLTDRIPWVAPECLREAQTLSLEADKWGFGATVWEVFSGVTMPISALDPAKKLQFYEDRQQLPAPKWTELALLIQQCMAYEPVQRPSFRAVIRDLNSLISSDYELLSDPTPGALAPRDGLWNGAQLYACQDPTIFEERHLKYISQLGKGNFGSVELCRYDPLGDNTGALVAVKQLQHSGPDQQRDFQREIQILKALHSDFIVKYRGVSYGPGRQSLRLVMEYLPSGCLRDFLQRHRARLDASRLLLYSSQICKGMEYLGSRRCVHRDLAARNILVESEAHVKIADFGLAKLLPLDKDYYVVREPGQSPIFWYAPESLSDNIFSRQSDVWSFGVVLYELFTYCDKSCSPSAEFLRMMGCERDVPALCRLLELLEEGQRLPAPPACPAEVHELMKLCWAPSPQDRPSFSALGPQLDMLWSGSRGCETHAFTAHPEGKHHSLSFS
Briefly: JAK Caliper Enzyme Assay at 1 mM ATP. It counts as biochemical. The method in brief:
(§1)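 Compound tested as 11-point half-log DMSO dilution series (top 600 μM in DMSO, a dilution-plate level). Enzyme level and time set for 20%-30% peptide phosphorylation; phosphorylated and unphosphorylated peptide separated and quantified by Caliper LC3000 mobility shift.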

The target in experiment [2] is T1, JAK3 enzyme. Briefly: JAK Caliper Enzyme Assay at 4 μM ATP. The format is biochemical. The method in brief: as §1
Experiment [3] deals with IL-15 induced P-STAT5 in human PBMC. In words: PBMC IL-15 Induced P-STAT5. The format is cell-based. To be noted: human PBMC, IL-15 final 41 ng/mL; read-out: PBMC IL15_pSTAT5_IC50. As for the experimental part:
PBMC IL-15 Induced P-STAT5
Test compounds were serially diluted in DMSO, with further dilution of the compounds in RPMI 1640 medium (Invitrogen #72400) supplemented with 10 mM HEPES, pH 7.4, 1 mM sodium pyruvate, and Penicillin/Streptomycin (by adding 5 μL compound/DMSO in 120 μL Dulbecco's Phosphate-Buffered Saline (D-PBS, 1×), [DMSO]=4%, and mixing the solution by repeated pipetting, 6×). IL-15 was diluted to the concentration at 820 ng/mL in RPMI 1640 medium.
Frozen human PBMC (200-250 million cells/vial) was thawed at 37° C. The cells were transferred to 10 mL warm medium in a 50-mL conical tube, and centrifuged at 1,200 RPM at room temperature for 5 min. The supernatant was aspirated. Cells were suspended in 3 mL warm human plasma and incubated at 37° C. in a tissue culture incubator for 1.5 to 2 h. After adding 47 ml D-PBS (37° C.) to PBMC/FBS suspension, centrifuging at 1,200 RPM at room temperature for 5 min, and aspirating the supernatant, the cells were resuspended in 20 mL warm RPMI medium. Ninety μL of cell suspension were pipetted per well in a 96-well, deep-well, V-bottom plate, and the plate was incubated at 37° C. for 30 min. Five μL of compound were transferred to each well (final 0.2% DMSO), vortex gently and incubate at 37° C. for 15 min; 5 μL 4% DMSO/PBS were added to the control wells. After adding 5 μL 820 ng/mL of human IL-15 (final 41 ng/mL) to each well (5 μL PBS to the control wells), vortexing gently and incubating at 37° C. for 15 min, followed by 0.3 mL 1% paraformaldehyde/PBS (37° C.) to each well, and incubating the plate at room temperature for 15 min, the plates were centrifuged at 1,200 RPM (Beckman GS-6R or Sorvall Legend) at room temperature for 5 min, and the supernatant was aspirated using a 8-channel or 12-channel manifold. After adding 0.8 mL staining buffer per well, the plates were centrifuged at 1,200 RPM (Beckman GS-6R or Sorvall Legend) at room temperature for 5 min, and again the supernatant was aspirated using a 8-channel or 12-channel manifold. The plate was vortexed, and 0.35 mL 90% methanol/10% H2O (−20° C.) was added per well, and the plate incubated on ice for 20 min. After again adding 0.8 mL staining buffer per well, the plates were centrifuged at 1,200 RPM (Beckman GS-6R or Sorvall Legend) at room temperature for 5 min, and again the supernatant was aspirated using a 8-channel or 12-channel manifold, and then 0.8 mL Staining buffer was added per well. After once again adding 0.8 mL staining buffer per well, the plates were centrifuged at 1,200 RPM (Beckman GS-6R or Sorvall Legend) at room temperature for 5 min, and again the supernatant was aspirated using a 8-channel or 12-channel manifold. Then the plate was vortexed, and 250 μL/well of Alexa Fluor® 647 conjugated anti-STAT5 antibody ([…]; […]) was added, and the plate was incubated at 4° C. overnight in the dark. Samples of 250 μL/well were transferred to a 96-well U-bottom plate, and the FACS analysis was performed gating on total lymphocytes. Samples were analyzed using a BD Calibur™ or BD FACSCanto™ flow cytometer equipped with the BD High Throughput Sampler.

`C=CC(=O)N1CCC(Nc2cnc3[nH]cc(C(=O)NCc4cc(C5CCC5)nn4C)c3n2)CC1` [Example 173, 2-[(1-acryloylpiperidin-4-yl)amino]-N-[(3-cyclobutyl-1-methyl-1H-pyrazol-5-yl)methyl]-5H-pyrrolo[2,3-b]pyrazine-7-carboxamide]: the IC50 is 43 nM in experiment [1], 0.681 nM in experiment [2] and 1420 nM in experiment [3].

`C=CC(=O)N1CCC(Nc2cnc3[nH]cc(C(=O)NCc4nc5cc(F)ccc5o4)c3n2)CC1` [Example 177, 2-[(1-acryloylpiperidin-4-yl)amino]-N-[(5-fluoro-1,3-benzoxazol-2-yl)methyl]-5H-pyrrolo[2,3-b]pyrazine-7-carboxamide]: the IC50 was found to be 25 nM in experiment [1], 0.626 nM in experiment [2] and 420 nM in experiment [3].

Turning to `C=CC(=O)N1CCC(Nc2cnc3[nH]cc(C(=O)NCCc4nc5ccc(F)c(F)c5o4)c3n2)CC1` [Example 182, 2-[(1-acryloylpiperidin-4-yl)amino]-N-[2-(6,7-difluoro-1,3-benzoxazol-2-yl)ethyl]-5H-pyrrolo[2,3-b]pyrazine-7-carboxamide], the IC50 in experiment [1] was 165 nM; in experiment [2], 2.44 nM; in experiment [3] it was over 10000 nM.

As for `C=CC(=O)N1CCC(Nc2cnc3[nH]cc(C(=O)NCc4ccc(-n5cccn5)cc4)c3n2)CC1` [Example 183, 2-[(1-acryloylpiperidin-4-yl)amino]-N-[4-(1H-pyrazol-1-yl)benzyl]-5H-pyrrolo[2,3-b]pyrazine-7-carboxamide], the IC50 is 41 nM in experiment [1], 1.03 nM in experiment [2] and 1590 nM in experiment [3].

`C=CC(=O)N1CCC(Nc2cnc3[nH]cc(C(=O)NCc4ccc(CC)c(C)n4)c3n2)CC1` [Example 184, 2-[(1-acryloylpiperidin-4-yl)amino]-N-[(5-ethyl-6-methylpyridin-2-yl)methyl]-5H-pyrrolo[2,3-b]pyrazine-7-carboxamide]: the IC50 was 68 nM in experiment [1], 1.39 nM in experiment [2] and 1190 nM in experiment [3].

Turning to `C=CC(=O)N1CCC(Nc2cnc3[nH]cc(C(=O)NCc4cnn(-c5cccc(F)c5)c4)c3n2)CC1` [Example 192, 2-[(1-acryloylpiperidin-4-yl)amino]-N-{[1-(3-fluorophenyl)-1H-pyrazol-4-yl]methyl}-5H-pyrrolo[2,3-b]pyrazine-7-carboxamide], the IC50 amounted to 29 nM in experiment [1], 0.627 nM in experiment [2] and 907 nM in experiment [3].

With `C=CC(=O)N1CCC(Oc2cnc3[nH]cc(C(=O)NCC4CC(F)(F)C4)c3n2)CC1` [Example 197, 2-[(1-acryloylpiperidin-4-yl)oxy]-N-[(3,3-difluorocyclobutyl)methyl]-5H-pyrrolo[2,3-b]pyrazine-7-carboxamide], the IC50 in experiment [1] is 147 nM; in experiment [2], 0.788 nM; in experiment [3] it was 706 nM.

For the compound `C=CC(=O)N1CCC(Oc2cnc3[nH]cc(C(=O)NCC4(O)CCC4)c3n2)CC1` [Example 203, 2-[(1-acryloylpiperidin-4-yl)oxy]-N-[(1-hydroxycyclobutyl)methyl]-5H-pyrrolo[2,3-b]pyrazine-7-carboxamide], the IC50 in experiment [1] turned out to be 370 nM; in experiment [2], 2.82 nM; in experiment [3] it was 4460 nM.

As for `C=CC(=O)N1CCC(Oc2cnc3[nH]cc(C(=O)N[C@H]4CC[C@H](F)C4)c3n2)CC1` [Example 210, 2-[(1-acryloylpiperidin-4-yl)oxy]-N-[(1S,3S)-3-fluorocyclopentyl]-5H-pyrrolo[2,3-b]pyrazine-7-carboxamide], the IC50 in experiment [1] was determined as 54 nM; in experiment [2], 0.435 nM; in experiment [3], 325 nM.

For the compound `C=CC(=O)N1CCC(Oc2cnc3[nH]cc(C(=O)NC4CC(F)(F)C4)c3n2)CC1` [Example 212, 2-[(1-acryloylpiperidin-4-yl)oxy]-N-(3,3-difluorocyclobutyl)-5H-pyrrolo[2,3-b]pyrazine-7-carboxamide], the IC50 is 328 nM in experiment [1], 0.922 nM in experiment [2] and 1340 nM in experiment [3].

As to `C=CC(=O)N1CCC(Oc2cnc3[nH]cc(C(=O)NCC(C)(F)F)c3n2)CC1` [Example 215, 2-[(1-acryloylpiperidin-4-yl)oxy]-N-(2,2-difluoropropyl)-5H-pyrrolo[2,3-b]pyrazine-7-carboxamide], the IC50 was 97 nM in experiment [1], 0.782 nM in experiment [2] and 619 nM in experiment [3].

Take `C=CC(=O)N1CCC(Oc2cnc3[nH]cc(C(=O)N[C@@H](C(C)C)[C@H](O)C(F)(F)F)c3n2)CC1` [Example 217, 2-[(1-acryloylpiperidin-4-yl)Oxy]-N-[(2S,3S)-1,1,1-trifluoro-2-hydroxy-4-methylpentan-3-yl]-5H-pyrrolo[2,3-b]pyrazine-7-carboxamide]: the IC50 came to 272 nM in experiment [1], 1.97 nM in experiment [2] and 2090 nM in experiment [3].

`C=CC(=O)N1CCC(Oc2cnc3[nH]cc(C(=O)NCCCC#N)c3n2)CC1` [Example 218, 2-[(1-acryloylpiperidin-4-yl)oxy]-N-(3-cyanopropyl)-5H-pyrrolo[2,3-b]pyrazine-7-carboxamide]: the results for the IC50 in experiment [1], in experiment [2] and in experiment [3] were 105 nM, 0.627 nM and 1200 nM, respectively.

On to `C=CC(=O)N1C[C@H](Nc2cnc3[nH]cc(C(=O)NCCOC)c3n2)[C@](C)(C#N)C1` [Example 245, 2-{[(3R,4R)-1-acryloyl-4-cyano-4-methylpyrrolidin-3-yl]amino}-N-(2-methoxyethyl)-5H-pyrrolo[2,3-b]pyrazine-7-carboxamide], for which the IC50 in experiment [1] was 297 nM; in experiment [2], 1.77 nM; in experiment [3], over 10000 nM.

For `C=CC(=O)N1CCN(c2cnc3[nH]cc(C(=O)NCCOC)c3n2)CC1(C)C` [Example 265, 2-(4-acryloyl-3,3-dimethylpiperazin-1-yl)-N-(2-methoxyethyl)-5H-pyrrolo[2,3-b]pyrazine-7-carboxamide], the IC50 in experiment [1] worked out at 742 nM; in experiment [2], 4.63 nM; in experiment [3], 2060 nM.
